From the supplement of paper PMC10307832

Experiments:
Temozolomide + Foretinib = compound: Cn1nnc2c(C(N)=O)ncn2c1=O [Temozolomide] + COc1cc2c(Oc3ccc(NC(=O)C4(C(=O)Nc5ccc(F)cc5)CC4)cc3F)ccnc2cc1OCCCN1CCOCC1 [Foretinib] (partner 0.25 µM); assay: relative viability (nuclei count vs DMSO), 5 days (fraction); higher = more cells survive
Procedure, shortened: (§1)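 The day after seeding in 1536-well plates, lung cancer cell lines were treated by pin tool with a single drug, or with a fixed anchor-drug dose together with five library-drug doses (not always all listed) in √10 steps. After 5 days, a combined fix-and-stain solution (final 0.05% Triton X-100, 1% formaldehyde, 1 ug/ml Hoechst) was added. Nuclei counted on 4× images gave relative viability as treated counts over vehicle counts, reported as the median of duplicate plates.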

AZD5582 + Navitoclax = compound: C[C@@H](C(=O)N[C@@H](C1CCCCC1)C(=O)N2CCC[C@H]2C(=O)N[C@@H]3[C@@H](CC4=CC=CC=C34)OCC#CC#CCO[C@@H]5CC6=CC=CC=C6[C@@H]5NC(=O)[C@@H]7CCCN7C(=O)[C@H](C8CCCCC8)NC(=O)[C@H](C)NC)NC [AZD5582] + CC1(C)CCC(c2ccc(Cl)cc2)=C(CN2CCN(c3ccc(C(=O)NS(=O)(=O)c4ccc(N[C@H](CCN5CCOCC5)CSc5ccccc5)c(S(=O)(=O)C(F)(F)F)c4)cc3)CC2)C1 [Navitoclax] (partner 0.5 µM); assay: as above
Procedure, shortened: as §1

| Cell Line | relative viability (Temozolomide + Foretinib; first compound 0.2 µM) | relative viability (Temozolomide + Foretinib; first compound 0.6325 µM) | relative viability (Temozolomide + Foretinib; first compound 2 µM) | relative viability (Temozolomide + Foretinib; first compound 6.325 µM) | relative viability (Temozolomide + Foretinib; first compound 20 µM) | relative viability (AZD5582 + Navitoclax; first compound 0.005 µM) | relative viability (AZD5582 + Navitoclax; first compound 0.01581 µM) | relative viability (AZD5582 + Navitoclax; first compound 0.05 µM) | relative viability (AZD5582 + Navitoclax; first compound 0.001581 µM) |
| --- | --- | --- | --- | --- | --- | --- | --- | --- | --- |
| CAL-12T | 1.13 | 1.09 | 1.15 | 1.05 | 1.13 | 0.531 | 1.26 | 0.854 | – |
| HCC-44 | – | – | – | – | – | 0.692 | 1.01 | 0.581 | 0.919 |
| A-427 | 0.992 | 0.981 | 1.03 | 0.66 | 0.486 | 0.831 | 0.896 | 0.756 | 0.779 |
| NCI-H1666 | 0.917 | 0.868 | 0.837 | 0.611 | 0.679 | 0.859 | 1.11 | 0.837 | 0.823 |
| HCC-78 | 0.487 | 0.547 | 0.616 | 0.551 | 0.552 | 0.948 | 0.775 | 0.617 | 0.69 |
| HCC-366 | 0.941 | 0.94 | 0.947 | 0.932 | 0.528 | 0.925 | 0.998 | 1.07 | 1.05 |
| EPLC-272H | 0.537 | 0.697 | 0.628 | 0.712 | 0.497 | 0.743 | 1.05 | 0.208 | 0.608 |
| NCI-H1755 | 0.979 | 0.93 | 0.908 | 0.873 | 0.722 | 0.973 | 1.01 | 1 | 0.933 |
| SK-MES-1 | 0.972 | 1.05 | 1.09 | 0.892 | 0.521 | 1.3 | 1.25 | 1.15 | 1.22 |
| NCI-H838 | 1.01 | 0.939 | 1.02 | 0.994 | 1.09 | 1.2 | 1.05 | 1.18 | 1.09 |
| NCI-H2170 | – | 1.01 | 1.05 | 0.993 | 0.526 | 0.624 | 0.624 | 0.758 | 0.551 |
| HCC-827 | 1.14 | 1.01 | 0.994 | 0.894 | 0.153 | 1.01 | 0.972 | 1.04 | 1.09 |
| NCI-H1793 | – | 0.583 | 0.935 | 0.432 | 0.615 | 0.453 | 0.476 | 0.465 | 0.475 |
| NCI-H441 | 1.12 | 0.937 | 1.15 | 1.02 | 1.07 | 0.543 | 0.453 | 0.518 | 0.639 |
| H3255 | – | 0.845 | 1.03 | 0.507 | 0.201 | 0.59 | 0.375 | 0.213 | 0.479 |
| ABC-1 | 1.06 | 0.96 | 1.21 | 1.07 | 1.11 | – | – | – | – |
| 201T | 0.901 | 1.2 | 1.14 | 1.08 | 1.03 | 1.23 | 1.12 | 1.31 | 1.21 |
| NCI-H596 | 0.952 | 0.925 | 0.997 | 0.451 | 0.818 | 0.581 | 1.16 | 0.332 | 0.811 |
| EKVX | 0.485 | 0.799 | 0.748 | 0.722 | 0.356 | 1.01 | 0.798 | 0.959 | 0.878 |

| Cell Line | relative viability (Temozolomide + Foretinib; first compound 0.2 µM) | relative viability (Temozolomide + Foretinib; first compound 0.6325 µM) | relative viability (Temozolomide + Foretinib; first compound 2 µM) | relative viability (Temozolomide + Foretinib; first compound 6.325 µM) | relative viability (Temozolomide + Foretinib; first compound 20 µM) | relative viability (AZD5582 + Navitoclax; first compound 0.005 µM) | relative viability (AZD5582 + Navitoclax; first compound 0.01581 µM) | relative viability (AZD5582 + Navitoclax; first compound 0.05 µM) | relative viability (AZD5582 + Navitoclax; first compound 0.001581 µM) |
| --- | --- | --- | --- | --- | --- | --- | --- | --- | --- |
| LOU-NH91 | 0.674 | 0.913 | 0.941 | 0.568 | 0.569 | 0.724 | 0.704 | 0.678 | 0.652 |
| NCI-H1355 | 0.947 | 0.938 | 1.1 | 1 | 0.908 | 0.951 | 0.954 | 1.01 | 0.926 |
| SK-LU-1 | 0.954 | 0.849 | 0.585 | 0.444 | 0.342 | 0.471 | 0.819 | 0.351 | 0.462 |
| LK-2 | 1.25 | 1.44 | 1.19 | 0.742 | 0.519 | 0.895 | 0.803 | 1.21 | 0.754 |
| NCI-H650 | 0.898 | 0.991 | 1.06 | 1 | 1.07 | – | – | – | – |
| NCI-H2085 | 0.847 | 1.04 | 1.05 | 0.939 | 0.749 | 1.1 | 1.12 | 1.01 | 1.14 |
| RERF-LC-KJ | 0.888 | 0.928 | 0.875 | 0.936 | 0.901 | – | 0.825 | 0.295 | 0.375 |
| NCI-H727 | 0.835 | 0.791 | 0.99 | 0.705 | 0.702 | 0.426 | 0.366 | 0.483 | 0.409 |
| NCI-H1651 | 0.914 | 0.725 | 0.782 | 0.759 | 0.839 | 1 | 1.21 | 1.14 | 0.981 |
| LCLC-97TM1 | 0.919 | 0.906 | 0.86 | 0.979 | 0.934 | 0.329 | 0.347 | 0.32 | – |
| NCI-H1734 | 0.874 | 0.929 | 0.959 | 0.754 | 0.859 | 0.866 | 0.886 | 0.954 | 0.791 |
| NCI-H2126 | 1.04 | 1.3 | 1.23 | 1.38 | 1.27 | 0.835 | 0.834 | 0.706 | 0.829 |
| PC-3 [JPC-3] | 1.11 | 1.03 | 0.998 | 1.03 | 0.526 | 0.727 | 0.664 | 0.486 | 0.752 |
| IA-LM | 1.35 | 1.23 | 1.19 | 1.03 | 1.34 | 0.538 | 0.951 | 0.714 | 0.499 |
| NCI-H1993 | 0.81 | 0.722 | 0.807 | 0.72 | 0.672 | 0.936 | 0.876 | 0.922 | 0.917 |
| NCI-H1299 | 1.15 | 1.12 | 1.09 | 1.1 | 1.12 | 1.07 | 1.08 | 1.04 | 1 |
| NCI-H2087 | 1.23 | 1.16 | 1.19 | 1.23 | 1.04 | 0.864 | 1.05 | 1.05 | 1.03 |
| HOP-62 | 1.33 | 1.08 | 1.14 | 1.1 | 1.04 | 0.917 | 1.08 | 1.14 | 0.945 |
